Laboratory results published in patent US20100222322A1, “Non-Nucleoside Reverse Transcriptase Inhibitors” (MERCK & CO., INC., priority 2005, published 2010).
Like-named read-outs stand apart in the source and are kept apart here.

Tests used:
[1] = target: T1, mutant HIV reverse transcriptase with the Y181C mutation (Human immunodeficiency virus type 1 group M subtype B, UniProt P04585, Y768C); test: Analogous RT inhibition assay, Y181C mutant; assay type: biochemical
T1 construct: mutations that occur in the reverse transcriptase segment of the pol gene; made in house
Procedure: (§1) 100 μL reaction mixtures were initiated with a combination of primer-template substrate (10 nM final concentration) and dNTPs (0.6 μM dNTPs, 0.75 μM [^3H]-dGTP). The heterodimeric nucleic acid substrate was generated by annealing the DNA primer pD500 (described in Shaw-Reid et al., J. Biol. Chem., 278: 2777-2780; obtained from Integrated DNA Technologies) to t500, a 500 nucleotide RNA template created by in vitro transcription (see Shaw-Reid et al., J. Biol. Chem., 278: 2777-2780). After 1 hour incubation at 37° C., reactions were quenched by 10 μL streptavidin scintillation proximity assay beads (10 mg/mL, from Amersham Biosciences) in 0.5 M EDTA, pH 8. Microtiter plates were incubated an additional 10 minutes at 37° C. prior to quantification via Topcount (Packard).
(§2) Analogous assays were conducted substituting mutant HIV strains to determine the […] inhibition of compounds of the present invention against mutant HIV reverse transcriptase. In one strain the reverse transcriptase has the Y181C mutation and in the other strain the reverse transcriptase has the K103N mutation. The mutations were generated with the […] site-directed mutagenesis kit (Stratagene). […] The compounds set forth in the other Examples were not tested in the Y181C assay. […] The compounds set forth in the other Examples were not tested in the K103N assay.

[2] = target: T2, mutant HIV reverse transcriptase with the K103N mutation (Human immunodeficiency virus type 1 group M subtype B, UniProt P04585, K690N); test: Analogous RT inhibition assay, K103N mutant; assay type: biochemical
T2 construct: mutations that occur in the reverse transcriptase segment of the pol gene; made in house
Procedure: as §1, §2

[3] = test system: HIV replication in T-lymphoid cells; test: Spread assay: inhibition of acute HIV infection of T-lymphoid cells; assay type: cell-based; conditions: read-out: IC95, spread assay (inhibition of HIV replication)
Procedure: An assay for the inhibition of acute HIV infection of T-lymphoid cells (alternatively referred to herein as the “spread assay”) was conducted in accordance with Vacca, J. P. et al., Proc. Natl. Acad. Sci. USA 1994, 91: 4096. […] The compounds of Examples 26, 29, 30, 33-35 and 62 were tested in the spread assay up to 10 micromolar, but specific IC95 values were not obtained; i.e., the IC95 values were greater than 10 micromolar. The compounds of Examples 47 and 61 were not tested.

[4] = RT with Y181C mutation, tested up to 20 micromolar, read-out: IC50, Y181C mutant assay
[5] = RT with K103N mutation, tested up to 20 micromolar, read-out: IC50, K103N mutant assay
[6] = Human immunodeficiency virus 1, acute HIV infection of T-lymphoid cells, tested up to 10 micromolar
[7] = Human immunodeficiency virus 1, T-lymphoid

SMILES: N#Cc1ccc2[nH]c(C(N)=O)c(S(=O)(=O)N3CCCC3)c2c1 [Example 68, 5-Cyano-3-(pyrrolidin-1-ylsulfonyl)-1H-indole-2-carboxamide]
- IC50 [1, 4]: > 20000 nM
- IC50 [2, 5]: 1000 to 20000 nM
- IC95 [3, 6]: < 1000 nM

SMILES: NC(=O)c1[nH]c2ccc(Br)cc2c1S(=O)(=O)N1CCCC(F)(F)C1 [Example 21, 5-bromo-3-[(3,3-difluoropiperidin-1-yl)sulfonyl]-1H-indole-2-carboxamide]
- IC50 [1]: < 1000 nM
- IC50 [2]: > 20000 nM
- IC95 [3, 6]: < 1000 nM

SMILES: CN(C1CC1)S(=O)(=O)c1c(C(N)=O)[nH]c2ccc(Br)cc12 [Example 8, 5-bromo-3-{[cyclopropyl(methyl)amino]sulfonyl}-1H-indole-2-carboxamide]
- IC50 [1]: 1000 to 20000 nM
- IC50 [2]: > 20000 nM
- IC95 [3, 6]: < 1000 nM

SMILES: NC(=O)c1[nH]c2ccc(Cl)cc2c1S(=O)(=O)N1CC=CC1 [Example 37, 5-chloro-3-(2,5-dihydro-1H-pyrrol-1-ylsulfonyl)-1H-indole-2-carboxamide]
- IC50 [1, 4]: < 1000 nM
- IC50 [2]: 1000 to 20000 nM
- IC95 [3, 6]: < 1000 nM

SMILES: O=C(NCc1ccccc1O)c1[nH]c2ccc(Br)cc2c1S(=O)(=O)N1CCCC1 [Example 51, 5-bromo-N-(2-hydroxybenzyl)-3-(pyrrolidin-1-ylsulfonyl)-1H-indole-2-carboxamide]
- IC50 [1]: < 1000 nM
- IC50 [2]: < 1000 nM
- IC95 [3, 6]: < 1000 nM

SMILES: NC(=O)c1[nH]c2ccc(Cl)cc2c1S(=O)(=O)NC1CCCC1 [Example 4, 5-chloro-3-[(cyclopentylamino)sulfonyl]-1H-indole-2-carboxamide]
- IC50 [1, 4]: < 1000 nM
- IC50 [2]: > 20000 nM
- IC95 [3, 6]: < 1000 nM

SMILES: O=C(NCc1nccs1)c1[nH]c2ccc(Br)cc2c1S(=O)(=O)N1CCCC1 [Example 47, 5-Bromo-3-(pyrrolidin-1-ylsulfonyl)-N-(1,3-thiazol-2-ylmethyl)-1H-indole-2-carboxamide]
- IC50 [1, 4]: < 1000 nM
- IC50 [2, 5]: < 1000 nM

SMILES: O=C(NCc1c(F)cccc1Cl)c1[nH]c2ccc(Br)cc2c1S(=O)(=O)N1CCCC1 [Example 48, 5-bromo-N-(2-chloro-6-fluorobenzyl)-3-(pyrrolidin-1-ylsulfonyl)-1H-indole-2-carboxamide]
- IC50 [1]: < 1000 nM
- IC50 [2]: < 1000 nM
- IC95 [3, 6]: < 1000 nM

SMILES: NC(=O)c1[nH]c2ccc(Cl)cc2c1S(=O)(=O)NC1CCCCC1 [Example 2, 5-chloro-3-[(cyclohexylamino)sulfonyl]-1H-indole-2-carboxamide]
- IC50 [1]: < 1000 nM
- IC50 [2]: > 20000 nM
- IC95 [3, 6]: < 1000 nM

SMILES: O=C(NCc1ccccc1OC(F)F)c1[nH]c2ccc(Br)cc2c1S(=O)(=O)N1CCCC1 [Example 53, 5-bromo-N-[2-(difluoromethoxy)benzyl]-3-(pyrrolidin-1-ylsulfonyl)-1H-indole-2-carboxamide]
- IC50 [1]: < 1000 nM
- IC50 [2]: < 1000 nM
- IC95 [3, 6]: < 1000 nM

SMILES: NC(=O)c1[nH]c2ccc(Br)cc2c1S(=O)(=O)NC1CCCC1 [Example 17, 5-bromo-3-[(cyclopentylamino)sulfonyl]-1H-indole-2-carboxamide]
- IC50 [1, 4]: < 1000 nM
- IC50 [2, 5]: > 20000 nM
- IC95 [3, 6]: < 1000 nM

SMILES: NC(=O)c1[nH]c2ccc(Cl)cc2c1S(=O)(=O)N1CCC(F)C1 (stereo not shown) [Example 38, 5-chloro-3-[(3-fluoropyrrolidin-1-yl)sulfonyl]-1H-indole-2-carboxamide]
- IC50 [1, 4]: < 1000 nM
- IC50 [2]: 1000 to 20000 nM
- IC95 [3, 6]: < 1000 nM

SMILES: O=C(NCc1ccn[nH]1)c1[nH]c2ccc(Br)cc2c1S(=O)(=O)N1CCCC1 [Example 59, 5-bromo-N-(1H-pyrazol-5-ylmethyl)-3-(pyrrolidin-1-ylsulfonyl)-1H-indole-2-carboxamide]
- IC50 [1]: < 1000 nM
- IC50 [2]: < 1000 nM
- IC95 [3, 6]: < 1000 nM

SMILES: NC(=O)c1[nH]c2ccc(Br)cc2c1S(=O)(=O)NC1CC1 [Example 11, 5-bromo-3-[(cyclopropylamino)sulfonyl]-1H-indole-2-carboxamide]
- IC50 [1]: 1000 to 20000 nM
- IC50 [2]: > 20000 nM
- IC95 [3, 6]: < 1000 nM

SMILES: NC(=O)c1[nH]c2ccc(Cl)cc2c1S(=O)(=O)N1CCC(F)(F)C1 [Example 39, 5-chloro-3-[(3,3-difluoropyrrolidin-1-yl)sulfonyl]-1H-indole-2-carboxamide]
- IC50 [1, 4]: < 1000 nM
- IC95 [3, 6]: < 1000 nM

SMILES: NC(=O)c1[nH]c2ccc(Br)cc2c1S(=O)(=O)NCCS(N)(=O)=O [Example 9, 3-({[2-(aminosulfonyl)ethyl]amino}sulfonyl)-5-bromo-1H-indole-2-carboxamide]
- IC50 [1]: 1000 to 20000 nM
- IC50 [2]: 1000 to 20000 nM
- IC95 [3, 6]: < 1000 nM

SMILES: CON(C)S(=O)(=O)c1c(C(N)=O)[nH]c2ccc(Br)cc12 [Example 12, 5-bromo-3-{[methoxy(methyl)amino]sulfonyl}-1H-indole-2-carboxamide]
- IC50 [1]: > 20000 nM
- IC50 [2]: > 20000 nM
- IC95 [3, 6]: < 1000 nM

SMILES: NC(=O)c1[nH]c2ccc(Br)cc2c1S(=O)(=O)NC1CCCCC1 [Example 16, 5-bromo-3-[(cyclohexylamino)sulfonyl]-1H-indole-2-carboxamide]
- IC50 [1, 4]: < 1000 nM
- IC50 [2, 5]: > 20000 nM
- IC95 [3, 6]: < 1000 nM

SMILES: O=C(NCc1cncs1)c1[nH]c2ccc(Br)cc2c1S(=O)(=O)N1CCCC1 [Example 65, 5-bromo-3-(pyrrolidin-1-ylsulfonyl)-N-(1,3-thiazol-5-ylmethyl)-1H-indole-2-carboxamide]
- IC50 [1]: < 1000 nM
- IC50 [2]: < 1000 nM
- IC95 [3, 6]: < 1000 nM

SMILES: NC(=O)c1[nH]c2ccc(Br)cc2c1S(=O)(=O)N1CC=CC1 [Example 10, 5-bromo-3-(2,5-dihydro-1H-pyrrol-1-ylsulfonyl)-1H-indole-2-carboxamide]
- IC50 [1]: < 1000 nM
- IC50 [2]: < 1000 nM
- IC95 [3, 6]: < 1000 nM

SMILES: NC(=O)c1[nH]c2ccc(Br)cc2c1S(=O)(=O)N1CCCCC1 [Example 13, 5-bromo-3-(piperidin-1-ylsulfonyl)-1H-indole-2-carboxamide]
- IC50 [1, 4]: < 1000 nM
- IC50 [2, 5]: 1000 to 20000 nM
- IC95 [3, 6]: < 1000 nM

SMILES: NC(=O)c1[nH]c2ccc(Br)cc2c1S(=O)(=O)N1CCC[C@H]1C(F)(F)F [Example 19, 5-bromo-3-{[(2S)-2-(trifluoromethyl)pyrrolidin-1-yl]sulfonyl}-1H-indole-2-carboxamide]
- IC50 [1]: 1000 to 20000 nM
- IC50 [2, 5]: > 20000 nM
- IC95 [3, 6]: < 1000 nM

SMILES: COC[C@@H]1CCCN1S(=O)(=O)c1c(C(N)=O)[nH]c2ccc(Br)cc12 [Example 15, 5-bromo-3-{[(2S)-2-(methoxymethyl)pyrrolidin-1-yl]sulfonyl}-1H-indole-2-carboxamide]
- IC50 [1, 4]: < 1000 nM
- IC50 [2, 5]: 1000 to 20000 nM
- IC95 [3, 6]: < 1000 nM

SMILES: O=C(NCc1ccncc1)c1[nH]c2ccc(Br)cc2c1S(=O)(=O)N1CCCC1 [Example 64, 5-bromo-N-(pyridin-4-ylmethyl)-3-(pyrrolidin-1-ylsulfonyl)-1H-indole-2-carboxamide]
- IC50 [1]: < 1000 nM
- IC50 [2]: < 1000 nM
- IC95 [3, 6]: < 1000 nM

SMILES: NC(=O)c1[nH]c2ccc(Cl)cc2c1S(=O)(=O)N1CCCCC1 [Example 5, 5-chloro-3-(piperidin-1-ylsulfonyl)-1H-indole-2-carboxamide]
- IC50 [1, 4]: < 1000 nM
- IC50 [2]: > 20000 nM
- IC95 [3, 6]: < 1000 nM

SMILES: O=C(NCCO)c1[nH]c2ccc(Br)cc2c1S(=O)(=O)N1CCCC1 [Example 32, 5-bromo-N-(2-hydroxyethyl)-3-(pyrrolidin-1-ylsulfonyl)-1H-indole-2-carboxamide]
- IC50 [1]: < 1000 nM
- IC50 [2]: 1000 to 20000 nM
- IC95 [3, 7]: < 1000 nM

SMILES: NC(=O)c1[nH]c2ccc(Br)cc2c1S(=O)(=O)NCC1CCCO1 (stereo not shown) [Example 18, 5-bromo-3-{[(tetrahydrofuran-2-ylmethyl)amino]sulfonyl}-1H-indole-2-carboxamide]
- IC50 [1, 4]: < 1000 nM
- IC50 [2, 5]: > 20000 nM
- IC95 [3, 6]: < 1000 nM

SMILES: O=C(NCCO)c1[nH]c2ccc(Br)cc2c1S(=O)(=O)N1CCCCC1 [Example 31, 5-bromo-N-(2-hydroxyethyl)-3-(piperidin-1-ylsulfonyl)-1H-indole-2-carboxamide]
- IC50 [1]: < 1000 nM
- IC50 [2]: > 20000 nM
- IC95 [3, 7]: < 1000 nM

SMILES: NC(=O)c1[nH]c2ccc(Cl)cc2c1S(=O)(=O)N1CCCC1 [Example 6, 5-chloro-3-(pyrrolidin-1-ylsulfonyl)-1H-indole-2-carboxamide]
- IC50 [1, 4]: < 1000 nM
- IC50 [2]: 1000 to 20000 nM
- IC95 [3, 6]: < 1000 nM

SMILES: NC(=O)c1[nH]c2ccc(Br)cc2c1S(=O)(=O)N1CCCC1 [Example 1, 5-Bromo-3-(pyrrolidin-1-ylsulfonyl)-1H-indole-2-carboxamide]
- IC50 [1, 4]: < 1000 nM
- IC50 [2, 5]: 1000 to 20000 nM
- IC95 [3, 6]: < 1000 nM
